Data published in patent US20050261264A1, “Rare-earth ternary complex” (priority 2000, published 2005).

What was measured:
Type in all cases: physicochemical
[1] = Miscibility with solvents, visual evaluation at 5 wt %; parameters: key: ⊚: dissolves at room temperature; ◯: dissolves when heated for 5 minutes at 40° C.; Δ: dissolves under heating, but cooling precipitates crystals; X: does not dissolve; conditions: complex added at 5 wt %
Procedure: The miscibility of the rare earth complex with various media was evaluated as follows.
1) Miscibility with Solvents

[2] = Miscibility with a polymer matrix, visual evaluation; parameters: key to Miscibility, PMMA: ⊚: dissolves up to 30 wt %; ◯: dissolves up to 5 wt %; Δ: disperses up to 5 wt %, but there is turbidity; X: repelled at the polymer surface
Method in brief: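 Complex added to various polymer media at set concentrations and miscibility judged visually: dissolves up to 30 wt %, dissolves up to 5 wt %, disperses up to 5 wt % with turbidity, or repelled at polymer surface.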

[3] = Number of moles of bound water per mole of complex (TG-DTA); conditions: Table 1; dried samples for the ternary complexes
Method in brief: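 Bound water per mole of Eu(PMS)3(TPPO)8 complex derived from TG-DTA weight loss at 100° C. Crystals measured as recrystallized from water-methanol and again after vacuum drying 3 h at 140° C, […].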

[4] = Luminescence quantum yield and luminescence intensity in solution; conditions: acetonitrile solution
Procedure: (§1) The intensity of luminescence and the luminescence quantum yield, the quotient of dividing the number of photons emitted from a sample by the number of photons absorbed into the sample, were measured with an SS-25 from JASCO Corporation.
The luminescence quantum yield of an acetonitrile solution of the Eu(PMS)3(TPPO)8 obtained in Example 1 (europium ion concentration: 0.05 mol/L) was measured (excitation wavelength: 465 nm, maximum luminescence wavelength: 612 nm, luminescence wavelength used in measurement: 612 nm).
The solutions prepared in Examples 12 to 14 and Comparative Examples 7 to 9 and Comparative Example B were measured for luminescence intensity at the respective maximum luminescence wavelengths.
The relative luminescence intensity of the solutions used in Examples 12 to 14 and Comparative Example B: (luminescence intensity in each of Examples 12 to 14)/(luminescence intensity in Comparative Example 7) was calculated, letting 1 be the luminescence intensity in Comparative Example 7 (solution of a rare earth complex in which the ligand Z was not coordinated).
Similarly, the relative luminescence intensity in Comparative Example 9: (luminescence intensity in Comparative Example 9)/(luminescence intensity in Comparative Example 8) was calculated, letting 1 be the luminescence intensity in Comparative Example 8 (solution of a known β-diketone-type of rare earth complex in which the ligand Z was not coordinated). The relative luminescence intensity of the solution used in Comparative Example B was 1.6 times.
The luminescence quantum yield of an acetone-d6 solution of the Nd(PMS)3(TPPO)8 obtained in Example 2 (neodymium ion concentration: 0.05 mol/L) was measured (excitation wavelength: 585 nm, maximum luminescence wavelength: 1064 nm, luminescence wavelength used in measurement: 1064 nm).
The solutions prepared in Examples 15 and 16 and Comparative Examples 10 were measured for luminescence intensity at the respective maximum luminescence wavelengths. The relative luminescence intensity in Examples 15 and 16: (luminescence intensity in each of Examples 15 and 16)/(luminescence intensity in Comparative Example 10) was calculated, letting 1 be the luminescence intensity in Comparative Example 10 (rare earth complex in which the ligand Z was not coordinated).

[5] = Luminescence quantum yield and luminescence intensity in PMMA polymer matrix composition; conditions: PMMA rod
Procedure: as §1
A 1 mL quantity of refined anhydrous methyl methacrylate (MMA), 0.5 mg of AIBN, and 148 mg (0.7 wt %) as the rare earth ion concentration) of the Eu (PMS)3 (TPPO)8 obtained in Example 1 were mixed, the mixture was transferred to a Pyrex tube, and the inside of the tube was deaerated and then sealed. By reacting for 5 hours at 60° C., the polymerization of MMA was carried out. The resulting PMMA containing Eu(PMS)3 (TPPO)8 was taken out of the Pyrex tube, and a rod-shaped polymer matrix composition was obtained.
The polymer matrix compositions prepared in Examples 17 to 19 and Comparative Example 11 were measured for luminescence intensity at the respective maximum luminescence wavelengths. The relative luminescence intensity in Examples 17 to 19: (luminescence intensity in each of Examples 17 to 19)/(luminescence intensity in Comparative Example 11) was calculated, letting 1 be the luminescence intensity in Comparative Example 11 (rare earth complex in which the ligand Z was not coordinated).
A rod-shaped polymer matrix composition containing […] was obtained in the same manner as in Example 17, except that 148 mg (rare earth ion concentration: 0.7 wt %) of the Nd(PMS)3 (TPPO)8 obtained in Example 2 was used instead of Eu(PMS)3 (TPPO)8.
The polymer matrix compositions prepared in Examples 20 and 21 and Comparative Example 12 were measured for luminescence intensity at the respective maximum luminescence wavelengths. The relative luminescence intensity in Examples 20 and 21: (luminescence intensity in each of Examples 20 and 21)/(luminescence intensity in Comparative Example 12) was calculated, letting 1 be the luminescence intensity in Comparative Example 12 (rare earth complex in which the ligand Z was not coordinated).

[6] = Mechanoluminescence of polycarbonate film hit with a metal rod; conditions: polycarbonate film about 6 μm thick, visual
Procedure: The rare earth ternary complex of the present invention can be used as a mechanoluminescence material. The term mechanoluminescence as used here refers to a phenomenon whereby physical force (such as pressure, vibration energy or the like) imparted to the rare earth ternary complex is converted into optical energy, causing the complex to emit light.
A 50 mg quantity of the Eu(PMS)3(Phen)m obtained in Example 8 and 450 mg of polycarbonate were dissolved in 3 mL of methylene chloride and then uniformly stirred to obtain a polymer solution. This polymer solution was then cast onto a glass plate, after which it was dried in vacuo overnight to remove the solvent, forming a polycarbonate film containing Eu(PMS)3(Phen)m, which is about 6 μm thick, on the glass plate.
A polycarbonate film containing Eu(PMS)3, which is about 6 μm thick, was formed on a glass plate in the same manner as in Example 22, except that 42 mg of the Eu(PMS)3 prepared in Producing Example 1 was used instead of Eu(PMS)3 (Phen) m.

O=S(=O)([N-]S(=O)(=O)C(F)(F)F)C(F)(F)F.O=S(=O)([N-]S(=O)(=O)C(F)(F)F)C(F)(F)F.O=S(=O)([N-]S(=O)(=O)C(F)(F)F)C(F)(F)F.[Eu+3] [Eu(PMS)3, reference compound]
Miscibility, Acetone [1]: ⊚
Miscibility, Chloroform [1]: X
Miscibility, Toluene [1]: X
Miscibility, Water [1]: ⊚
Miscibility, Epoxy resin [2]: Δ (disperses up to 5 wt %, but there is turbidity)
Miscibility, Nafion [2]: Δ (disperses up to 5 wt %, but there is turbidity)
Miscibility, PMMA [2]: X
Bound water (number of moles of bound water per mole of complex) [3]: 2.08
Relative luminescence intensity ([4]; Eu 0.05 mol/L, relative to Eu(PMS)3 (Comparative Example 7) = 1): 1.0
Luminescence quantum yield ([4]; europium ion 0.05 mol/L, excitation 465 nm, luminescence 612 nm): 5.0%
Relative luminescence intensity ([5]; Eu 0.7 wt %, relative to Eu(PMS)3 (Comparative Example 11) = 1): 1.0
Luminescence quantum yield ([5]; rare earth ion 0.7 wt %, excitation 465 nm, luminescence 612 nm): 2.5%
Light emission when film is hit with a metal rod (mechanoluminescence) [6]: no light emission was noted
